{"source": "the supplement of paper PMC10307832", "experiment_in_all_cases": "relative viability (nuclei count vs DMSO), 5 days (fraction); higher = more cells survive", "key": {"[1]": {"system": "NCI-H1792", "how_it_was_run": "(§1)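 Lung cancer cell lines in 1536-well plates were dosed by pin tool the day after seeding, either with one drug alone or with a fixed anchor-drug dose plus five library-drug doses (not always all listed) in √10 steps. After 5 days, cells were fixed and their nuclei stained in one step (final 0.05% Triton X-100, 1% formaldehyde, 1 ug/ml Hoechst), then counted on 4× images. Relative viability is the nuclei count in treated wells divided by that in vehicle wells. Values are medians of duplicate plates.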"}, "[2]": {"system": "LU99A", "how_it_was_run": "as §1"}, "[3]": {"system": "HCC-827", "how_it_was_run": "as §1"}, "[4]": {"system": "NCI-H2126", "how_it_was_run": "as §1"}, "[5]": {"system": "SK-MES-1", "how_it_was_run": "as §1"}, "[6]": {"system": "NCI-H727", "how_it_was_run": "as §1"}, "[7]": {"system": "NCI-H1734", "how_it_was_run": "as §1"}, "[8]": {"system": "COR-L 105", "how_it_was_run": "as §1"}, "[9]": {"system": "BEN", "how_it_was_run": "as §1"}, "[10]": {"system": "LCLC-97TM1", "how_it_was_run": "as §1"}, "[11]": {"system": "SW 1573", "how_it_was_run": "as §1"}, "[12]": {"system": "EMC-BAC-2", "how_it_was_run": "as §1"}, "[13]": {"system": "LOU-NH91", "how_it_was_run": "as §1"}, "[14]": {"system": "RERF-LC-KJ", "how_it_was_run": "as §1"}, "[15]": {"system": "EKVX", "how_it_was_run": "as §1"}, "[16]": {"system": "EPLC-272H", "how_it_was_run": "as §1"}, "[17]": {"system": "NCI-H358", "how_it_was_run": "as §1"}, "[18]": {"system": "LK-2", "how_it_was_run": "as §1"}, "[19]": {"system": "NCI-H2087", "how_it_was_run": "as §1"}, "[20]": {"system": "HCC-78", "how_it_was_run": "as §1"}, "[21]": {"system": "NCI-H1944", "how_it_was_run": "as §1"}}}
{"smiles": "Cc1cnc(-c2cnc(NCCNc3ccc(C#N)cn3)nc2-c2ccc(Cl)cc2Cl)[nH]1", "note": "+ Cc1nc(NC(=O)N2CCC[C@H]2C(N)=O)sc1-c1ccnc(C(C)(C)C(F)(F)F)c1 [Alpelisib] (partner 2 µM)", "values": [{"measurement": "relative viability", "setting": "[1]; first compound 0.08 µM", "result": 0.736}, {"measurement": "relative viability", "setting": "[1]; first compound 0.253 µM", "result": 0.639}, {"measurement": "relative viability", "setting": "[1]; first compound 0.8 µM", "result": 0.625}, {"measurement": "relative viability", "setting": "[1]; first compound 2.53 µM", "result": 0.674}, {"measurement": "relative viability", "setting": "[2]; first compound 0.08 µM", "result": 0.606}, {"measurement": "relative viability", "setting": "[2]; first compound 0.253 µM", "result": 0.548}, {"measurement": "relative viability", "setting": "[2]; first compound 0.8 µM", "result": 0.557}, {"measurement": "relative viability", "setting": "[2]; first compound 2.53 µM", "result": 0.516}, {"measurement": "relative viability", "setting": "[3]; first compound 0.08 µM", "result": 1.08}, {"measurement": "relative viability", "setting": "[3]; first compound 0.8 µM", "result": 0.99}, {"measurement": "relative viability", "setting": "[3]; first compound 2.53 µM", "result": 0.929}, {"measurement": "relative viability", "setting": "[4]; first compound 0.08 µM", "result": 0.725}, {"measurement": "relative viability", "setting": "[4]; first compound 0.253 µM", "result": 0.756}, {"measurement": "relative viability", "setting": "[4]; first compound 0.8 µM", "result": 0.669}, {"measurement": "relative viability", "setting": "[4]; first compound 2.53 µM", "result": 0.766}, {"measurement": "relative viability", "setting": "[5]; first compound 0.08 µM", "result": 1.01}, {"measurement": "relative viability", "setting": "[5]; first compound 0.253 µM", "result": 0.888}, {"measurement": "relative viability", "setting": "[5]; first compound 2.53 µM", "result": 0.911}, {"measurement": "relative viability", "setting": "[6]; first compound 0.08 µM", "result": 0.505}, {"measurement": "relative viability", "setting": "[6]; first compound 0.253 µM", "result": 0.593}, {"measurement": "relative viability", "setting": "[6]; first compound 0.8 µM", "result": 0.566}, {"measurement": "relative viability", "setting": "[6]; first compound 2.53 µM", "result": 0.482}, {"measurement": "relative viability", "setting": "[7]; first compound 0.08 µM", "result": 0.766}, {"measurement": "relative viability", "setting": "[7]; first compound 0.253 µM", "result": 0.673}, {"measurement": "relative viability", "setting": "[7]; first compound 0.8 µM", "result": 0.656}, {"measurement": "relative viability", "setting": "[7]; first compound 2.53 µM", "result": 0.633}, {"measurement": "relative viability", "setting": "[8]; first compound 0.08 µM", "result": 0.994}, {"measurement": "relative viability", "setting": "[8]; first compound 0.253 µM", "result": 0.927}, {"measurement": "relative viability", "setting": "[8]; first compound 0.8 µM", "result": 1.11}, {"measurement": "relative viability", "setting": "[8]; first compound 2.53 µM", "result": 0.612}, {"measurement": "relative viability", "setting": "[9]; first compound 0.08 µM", "result": 1.22}, {"measurement": "relative viability", "setting": "[9]; first compound 0.253 µM", "result": 0.973}, {"measurement": "relative viability", "setting": "[9]; first compound 0.8 µM", "result": 0.964}, {"measurement": "relative viability", "setting": "[9]; first compound 2.53 µM", "result": 1.04}, {"measurement": "relative viability", "setting": "[10]; first compound 0.08 µM", "result": 0.28}, {"measurement": "relative viability", "setting": "[10]; first compound 0.253 µM", "result": 0.176}, {"measurement": "relative viability", "setting": "[10]; first compound 0.8 µM", "result": 0.251}, {"measurement": "relative viability", "setting": "[10]; first compound 2.53 µM", "result": 0.323}, {"measurement": "relative viability", "setting": "[11]; first compound 0.08 µM", "result": 0.822}, {"measurement": "relative viability", "setting": "[11]; first compound 0.253 µM", "result": 0.765}, {"measurement": "relative viability", "setting": "[11]; first compound 0.8 µM", "result": 0.748}, {"measurement": "relative viability", "setting": "[11]; first compound 2.53 µM", "result": 0.515}, {"measurement": "relative viability", "setting": "[12]; first compound 0.08 µM", "result": 0.8}, {"measurement": "relative viability", "setting": "[12]; first compound 0.253 µM", "result": 0.72}, {"measurement": "relative viability", "setting": "[12]; first compound 0.8 µM", "result": 0.743}, {"measurement": "relative viability", "setting": "[12]; first compound 2.53 µM", "result": 0.749}, {"measurement": "relative viability", "setting": "[13]; first compound 0.08 µM", "result": 0.852}, {"measurement": "relative viability", "setting": "[13]; first compound 0.253 µM", "result": 0.729}, {"measurement": "relative viability", "setting": "[13]; first compound 0.8 µM", "result": 0.675}, {"measurement": "relative viability", "setting": "[13]; first compound 2.53 µM", "result": 0.715}, {"measurement": "relative viability", "setting": "[14]; first compound 0.08 µM", "result": 0.984}, {"measurement": "relative viability", "setting": "[14]; first compound 0.253 µM", "result": 0.746}, {"measurement": "relative viability", "setting": "[14]; first compound 0.8 µM", "result": 0.775}, {"measurement": "relative viability", "setting": "[14]; first compound 2.53 µM", "result": 0.916}, {"measurement": "relative viability", "setting": "[15]; first compound 0.08 µM", "result": 1.04}, {"measurement": "relative viability", "setting": "[15]; first compound 0.253 µM", "result": 0.739}, {"measurement": "relative viability", "setting": "[15]; first compound 0.8 µM", "result": 0.839}, {"measurement": "relative viability", "setting": "[15]; first compound 2.53 µM", "result": 0.766}, {"measurement": "relative viability", "setting": "[16]; first compound 0.08 µM", "result": 0.911}, {"measurement": "relative viability", "setting": "[16]; first compound 0.253 µM", "result": 1.01}, {"measurement": "relative viability", "setting": "[16]; first compound 0.8 µM", "result": 0.728}, {"measurement": "relative viability", "setting": "[16]; first compound 2.53 µM", "result": 0.899}, {"measurement": "relative viability", "setting": "[17]; first compound 0.08 µM", "result": 0.955}, {"measurement": "relative viability", "setting": "[17]; first compound 0.253 µM", "result": 0.714}, {"measurement": "relative viability", "setting": "[17]; first compound 0.8 µM", "result": 0.843}, {"measurement": "relative viability", "setting": "[17]; first compound 2.53 µM", "result": 0.729}, {"measurement": "relative viability", "setting": "[18]; first compound 0.08 µM", "result": 1.21}, {"measurement": "relative viability", "setting": "[18]; first compound 0.253 µM", "result": 1.05}, {"measurement": "relative viability", "setting": "[18]; first compound 0.8 µM", "result": 1.13}, {"measurement": "relative viability", "setting": "[18]; first compound 2.53 µM", "result": 1.3}, {"measurement": "relative viability", "setting": "[19]; first compound 0.08 µM", "result": 1.21}, {"measurement": "relative viability", "setting": "[19]; first compound 0.253 µM", "result": 0.892}, {"measurement": "relative viability", "setting": "[19]; first compound 0.8 µM", "result": 1.02}, {"measurement": "relative viability", "setting": "[19]; first compound 2.53 µM", "result": 1.06}, {"measurement": "relative viability", "setting": "[20]; first compound 0.08 µM", "result": 0.401}, {"measurement": "relative viability", "setting": "[20]; first compound 0.253 µM", "result": 0.285}, {"measurement": "relative viability", "setting": "[20]; first compound 0.8 µM", "result": 0.308}, {"measurement": "relative viability", "setting": "[20]; first compound 2.53 µM", "result": 0.333}, {"measurement": "relative viability", "setting": "[21]; first compound 0.08 µM", "result": 0.827}, {"measurement": "relative viability", "setting": "[21]; first compound 0.8 µM", "result": 0.84}, {"measurement": "relative viability", "setting": "[21]; first compound 2.53 µM", "result": 0.824}]}
